Assay results taken from the NIST ThermoML archive (doi:10.1021/je900643r).

What was measured:
[1] = 298.15 K; for surface tension liquid-gas: Drop volume; for mass density: 101.33 kPa, Liquid
[2] = xn = mol fraction of the nth substance listed; settings: 298.15 K; for surface tension liquid-gas: Drop volume; for mass density: 101 kPa, Liquid

Cc1ccc(C)cc1 [1,4-dimethylbenzene]
[1]
Settings	mass density [kg/m3]	surface tension liquid-gas [mN/m]
–	856.51	27.7

Cc1ccc(C)cc1 [1,4-dimethylbenzene] + CCCCCC
[2]
Settings	mass density [kg/m3]	surface tension liquid-gas [mN/m]
x2 = 0.0393	848.42	–
x2 = 0.0535	–	26.84
x2 = 0.0718	–	26.58
x2 = 0.0869	838.63	–
x2 = 0.1265	–	25.76
x2 = 0.1341	–	25.66
x2 = 0.1535	824.96	–
x2 = 0.208	813.78	–
x2 = 0.3063	793.59	–
x2 = 0.3083	–	23.45
x2 = 0.3397	–	23.1
x2 = 0.3524	784.21	–
x2 = 0.399	–	22.47
x2 = 0.4333	767.75	–
x2 = 0.467	–	21.81
x2 = 0.4867	756.93	–
x2 = 0.492	–	21.59
x2 = 0.5267	–	21.29
x2 = 0.5404	746.02	–
x2 = 0.5836	737.32	–
x2 = 0.6034	–	20.67
x2 = 0.638	726.41	–
x2 = 0.6394	–	20.39
x2 = 0.6877	–	20.07
x2 = 0.6903	715.94	–
x2 = 0.7826	–	19.41
x2 = 0.7872	696.69	–
x2 = 0.8126	–	19.22
x2 = 0.8297	688.25	–
x2 = 0.8798	–	18.79
x2 = 0.8952	675.28	–
x2 = 0.9417	666.19	–

CCCCCC [hexane]
[1]
Settings	mass density [kg/m3]	surface tension liquid-gas [mN/m]
–	654.7	17.91

CCCOC(=O)CC [propyl propanoate]
[1]
Settings	mass density [kg/m3]	surface tension liquid-gas [mN/m]
–	875.53	24.1
